Measurements published in patent publication US20240116856A1 (Young BioPharma, LLC, priority 2020, published 2024).
Entries after “also recorded” stand apart in the source; their conditions may differ. Where two headings read alike, the source gives them in different places.

Key:
human TRPV3 = target: T1, human TRPV3 (Homo sapiens, UniProt Q8NET8); test: In vitro Ca2+ flux counter-screen in human TRPV3 overexpressing cells; assay type: cell-based; conditions: counter-screen; read-out: TRPV3 EC50
T1 construct: expressed in transfected cells; host or cells: overexpressing cells
T1 sequence (Q8NET8 1-790): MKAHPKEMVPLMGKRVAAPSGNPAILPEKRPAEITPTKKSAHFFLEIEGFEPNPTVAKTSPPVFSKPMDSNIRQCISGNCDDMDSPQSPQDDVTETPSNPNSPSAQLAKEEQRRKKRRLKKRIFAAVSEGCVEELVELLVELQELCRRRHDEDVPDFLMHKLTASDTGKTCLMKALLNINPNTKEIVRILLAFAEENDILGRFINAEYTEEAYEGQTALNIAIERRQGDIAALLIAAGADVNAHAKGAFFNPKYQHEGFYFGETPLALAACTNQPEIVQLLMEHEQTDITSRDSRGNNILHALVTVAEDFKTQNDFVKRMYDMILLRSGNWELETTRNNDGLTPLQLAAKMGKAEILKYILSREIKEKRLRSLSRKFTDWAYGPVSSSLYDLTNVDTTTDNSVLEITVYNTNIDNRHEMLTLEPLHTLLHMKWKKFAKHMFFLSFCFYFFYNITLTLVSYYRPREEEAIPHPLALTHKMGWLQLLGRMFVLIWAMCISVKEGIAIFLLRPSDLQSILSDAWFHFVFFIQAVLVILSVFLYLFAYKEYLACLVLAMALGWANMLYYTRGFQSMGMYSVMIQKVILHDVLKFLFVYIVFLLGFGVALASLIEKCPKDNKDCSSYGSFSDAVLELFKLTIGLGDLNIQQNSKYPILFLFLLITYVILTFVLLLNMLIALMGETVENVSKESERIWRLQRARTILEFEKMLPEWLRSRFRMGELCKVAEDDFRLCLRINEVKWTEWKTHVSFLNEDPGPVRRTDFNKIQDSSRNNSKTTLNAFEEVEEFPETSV

TRPV1 = target: T2, TRPV1 (Mus musculus, UniProt Q704Y3); test: Ca2+ imaging of primary mouse dorsal root ganglion (DRG) neurons, TRPV1 desensitization; assay type: cell-based; conditions: then capsaicin 0.5 μM
T2 construct: DRG was isolated from male and female mice expressing GCaMP6f in neurons; endogenous in cells; host or cells: dissociated primary DRG neurons from GCaMP6f-expressing mice
T2 sequence (Q704Y3 whole entry): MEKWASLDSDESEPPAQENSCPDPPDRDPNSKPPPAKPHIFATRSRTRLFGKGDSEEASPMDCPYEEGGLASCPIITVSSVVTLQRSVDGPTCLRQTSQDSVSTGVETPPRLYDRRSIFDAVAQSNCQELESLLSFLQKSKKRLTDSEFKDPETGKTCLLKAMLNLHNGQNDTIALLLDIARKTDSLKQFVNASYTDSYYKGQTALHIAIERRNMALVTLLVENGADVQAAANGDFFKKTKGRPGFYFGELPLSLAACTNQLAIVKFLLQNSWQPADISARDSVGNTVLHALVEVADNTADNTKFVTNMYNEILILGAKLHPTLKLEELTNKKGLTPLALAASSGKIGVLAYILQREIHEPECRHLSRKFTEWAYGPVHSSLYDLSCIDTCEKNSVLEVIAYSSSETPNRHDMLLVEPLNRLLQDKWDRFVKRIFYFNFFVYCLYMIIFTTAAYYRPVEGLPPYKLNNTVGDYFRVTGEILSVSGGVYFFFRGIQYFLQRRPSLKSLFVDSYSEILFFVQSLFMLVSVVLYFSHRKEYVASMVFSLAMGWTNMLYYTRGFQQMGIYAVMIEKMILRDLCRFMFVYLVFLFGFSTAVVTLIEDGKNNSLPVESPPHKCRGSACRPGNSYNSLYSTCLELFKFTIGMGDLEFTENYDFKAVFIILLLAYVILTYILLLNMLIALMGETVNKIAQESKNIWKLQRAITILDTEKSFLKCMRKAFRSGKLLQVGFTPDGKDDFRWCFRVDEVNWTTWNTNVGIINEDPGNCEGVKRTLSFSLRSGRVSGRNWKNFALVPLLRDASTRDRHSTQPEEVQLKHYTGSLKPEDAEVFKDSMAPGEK

NCI-H460 = test: Human cancer cell growth inhibition assay (ATP assay), NCI-H460; assay type: cell-based; conditions: Homo sapiens, NCI-H460, 96 h; 4 days; Means±SEM from three independent experiments; read-out: NCl-H460, IC50
NCI-H460 cell invasion = test: Cancer cell invasion assay, NCI-H460; assay type: cell-based, human; conditions: 24 h
Method: (§1) A cancer cell invasion assay was developed based on literature protocols (Methods 2005, 37, 208; EMBO J 2002, 21, 6289; Cellular Signalling 2012, 24, 1276.). Membrane matrix gel (Cat #A1413201, ThermoFisher) was diluted in ice-cold, serum-free RPMI 1640 Medium (Cat #31800022, ThermoFisher) at a concentration of 0.5-0.6 mg/mL. Then it was added to the upper compartment (100 μL per cup) of millicell inserts (Cat #PI8P01250, ThermoFisher) placed in a 24-well plate (Part no. 229123, Celltreat). The plate was incubated at 37° C. for 2 h to allow the liquid gel to solidify. RPMI 1640 Medium supplemented with 10% FBS (300 μL) was added to the well of the plate (lower compartment) as attractant, then DMSO or compounds were added. Human cancer cells (1×10^5 cells in 200 μL of RPMI 1640 Medium) were added to the upper compartment of the insert, then DMSO or compounds were added. After the plate was incubated at 37° C. for 24 h, the cells were fixed on the lower side of the insert membrane with 4% formaldehyde and stained with 1% crystal violet (Part no. IS12146, Innovating Science). The invaded cells on the lower side of the filter were counted under an inverted microscope equipped with either a 4× or a 10× objective (FIG. 11). The cell numbers from 5 random views were averaged and plotted as percentage against the DMSO control (FIG. 12A).

OVCAR-8 cell invasion = test: Cancer cell invasion assay, OVCAR-8; assay type: cell-based, human; conditions: 24 h
Method: as §1

[1] = Scoville Heat Units, cited from earlier work
[2] = system: MDA-MB-231 breast cancer tumors; conditions: literature; cited from earlier work
[3] = Rodent eye wiping assay (pungency)
[4] = first treatment capsaicin 0.5 μM, YB-11 0.5 μM or YB-16 1.0 μM, paired t-test

COc1cc(CNC(=O)CCCC/C=C/C(C)C)ccc1O [Capsaicin, trans-8-methyl-N-vanillyl-6-nonenamide, reference compound]
EC50 (human TRPV3): > 10 µM
TRPV1-sensitive neurons showing desensitization (TRPV1; first treatment 0.5 μM): 96%
area under the curve of the Ca2+ signal of the second (capsaicin) application (TRPV1; [4]): statistically significant reduction; also recorded: significantly reduced
max Ca2+ signal of the second (capsaicin) application (TRPV1; [4]): statistically significant reduction; also recorded: significantly reduced
IC50 (NCI-H460): 200 ± 65 µM
inhibition of NCI-H460 cell invasion (NCI-H460 cell invasion): dose-dependently inhibited
inhibition of OVCAR-8 cell invasion (OVCAR-8 cell invasion): dose-dependently inhibited
Pungency (SHU) [1]: 16,000,000 SHU
Pungency (SHU) ([1]; listed as capsaicin): 16.0 million
decrease of tumor size [2]: 50%
MPP ([3]; Moderate Pain-Producing Potency concentration: dose producing 10 normalized eye wipes): 0.041 mg/mL
Pungency RPP ([3]; Relative Pain-Producing Potency with Capsaicin set to 100): 100
Pungency RPP ([3]; Table 3 comparison, Capsaicin set to 100): 100
